Measured values taken from patent publication US9306235B2, “Redox flow battery” (SAMSUNG ELECTRONICS CO., LTD., priority 2010, dated 2016).

Assay: Evaluation of organic electrolyte solubility together with a supporting electrolyte
Type: physicochemical
Details: generation of precipitates identified
Protocol: In the case where an organic electrolyte is used together with a supporting electrolyte, solubility of the organic electrolyte is evaluated. As the supporting electrolyte, TEABF4 and SBPBF4 are added to each of 0.0M, 0.2M, and 0.5M propylene carbonate aliquots, and then 1.2M Fe(bpy)3(BF4)2 is added to a final volume of 10 mL. The generation of precipitates is identified for each case.

[1] = supporting electrolyte 0.0 Mole (0.0M) in propylene carbonate
[2] = supporting electrolyte 0.2 Mole (0.2M) in propylene carbonate
[3] = supporting electrolyte 0.5 Mole (0.5M) in propylene carbonate

Row | SMILES | Solubility of 1.2M Fe(bpy)3(BF4)2 [1] | Solubility of 1.2M Fe(bpy)3(BF4)2 [2] | Solubility of 1.2M Fe(bpy)3(BF4)2 [3]
1 | C1CC[N+]2(C1)CCCC2.F[B-](F)(F)F [SBPBF4, spiro-(1,1′)-bipyrrolidiniumtetrafluoroborate] | Soluble | Soluble | Soluble
2 | CC[N+](CC)(CC)CC.F[B-](F)(F)F [TEABF4, tetraethylammoniumtetrafluoroborate] | Soluble | Precipitation | Precipitation
